Data from patent US4081433A, “D-Nle^4 -somatostatin and analogues thereof” (American Home Products Corporation, priority 1977, dated 1978).
Bridge positions count the residues as written; N and C are the ends. Square brackets hold non-standard residues; d marks the D form. Peptide text beside a SMILES is read from it. dNle = CCCC[C@@H](N)C(=O)O

Tested on: growth hormone
Assay: Arginine-stimulated growth hormone secretion in Nembutal-anaesthetised rats
Format: in vivo
Conditions: albino male rats, 1 mg/kg subcutaneous
Description: The activity of the product of the preceding preparatory example, (D-Nle^4)Somatostatin, was determined by the following procedure:
Albino male rats were administered Nembutal intraperitoneally at a dose of 50 milligrams per kilogram. Fifteen minutes later a subcutaneous injection of the test compound or physiological saline was administered. Ten minutes later 0.5 milliliters of arginine (300 millligrams per milliliter, pH 7.2) is injected into the heart. Five minutes after receipt of the arginine the rats are decapitated and blood is collected into trasylol-EDTA.

Structure (SMILES): CCCC[C@H]1NC(=O)[C@@H](NC(=O)CNC(=O)[C@H](C)N)CSSC[C@@H](C(=O)O)NC(=O)[C@H](CO)NC(=O)[C@H]([C@@H](C)O)NC(=O)[C@H](Cc2ccccc2)NC(=O)[C@H]([C@@H](C)O)NC(=O)[C@H](CCCCN)NC(=O)[C@H](Cc2c[nH]c3ccccc23)NC(=O)[C@H](Cc2ccccc2)NC(=O)[C@H](Cc2ccccc2)NC(=O)[C@H](CC(N)=O)NC1=O [(D-Nle^4)Somatostatin, L-Alanyl-glycyl-L-cysteinyl-D-norleucyl-L-asparaginyl-L-phenylalanyl-L-phenylalanyl-L-tryptophyl-L-lysyl-L-threonyl-L-phenylalanyl-L-threonyl-L-seryl- L-cysteine cyclic (1.revreaction.14) disulfide] (H-AGC[dNle]NFFWKTFTSC-OH; disulfide 3-14)
- reducing secretion of growth hormone (in words): effective agent for reducing secretion of growth hormone
- growth hormone in blood (arginine injected 10 min later, blood 5 min after arginine, control 208±52 ng/ml, p<0.05): 83 ± 23 ng/mL
